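Values below derive from 48-hour exposures of cells grown in 96-well plates, with endpoints linearly interpolated between the two concentrations bracketing the appropriate inhibition level. TGI is the concentration that stops growth completely.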
Legend:
Assay in all cases: inhibition of tumour cell growth, NCI panel, 48 h
786-0 renal = test system: 786-0 renal
A498 renal = test system: A498 renal
A549 NSCLC = test system: A549 NSCLC
BT-549 breast = test system: BT-549 breast
CAKI-1 renal = test system: CAKI-1 renal
CCRF-CEM leukemia = test system: CCRF-CEM leukemia
COLO 205 colon = test system: COLO 205 colon
DU-145 prostate = test system: DU-145 prostate
EKVX NSCLC = test system: EKVX NSCLC
HCC-2998 colon = test system: HCC-2998 colon
HCT-116 colon = test system: HCT-116 colon
HCT-15 colon = test system: HCT-15 colon
HL-60(TB) leukemia = test system: HL-60(TB) leukemia
HS 578T breast = test system: HS 578T breast
HT29 colon = test system: HT29 colon
K-562 leukemia = test system: K-562 leukemia
KM12 colon = test system: KM12 colon
LOX IMVI melanoma = test system: LOX IMVI melanoma
M14 melanoma = test system: M14 melanoma
MALME-3M melanoma = test system: MALME-3M melanoma
MCF7 breast = test system: MCF7 breast
MDA-MB-231 breast = test system: MDA-MB-231 breast
MDA-MB-435 = test system: MDA-MB-435
MDA-N = test system: MDA-N
MOLT-4 leukemia = test system: MOLT-4 leukemia
NCI-H226 lung = test system: NCI-H226 lung
NCI-H23 lung = test system: NCI-H23 lung
NCI-H460 lung = test system: NCI-H460 lung
NCI-H522 lung = test system: NCI-H522 lung
NCI/ADR-RES ovarian = test system: NCI/ADR-RES ovarian
OVCAR-3 ovarian = test system: OVCAR-3 ovarian
OVCAR-4 ovarian = test system: OVCAR-4 ovarian
OVCAR-5 ovarian = test system: OVCAR-5 ovarian
OVCAR-8 ovarian = test system: OVCAR-8 ovarian
PC-3 prostate = test system: PC-3 prostate
RPMI-8226 leukemia = test system: RPMI-8226 leukemia
RXF 393 renal = test system: RXF 393 renal
SF-268 CNS = test system: SF-268 CNS
SF-539 CNS = test system: SF-539 CNS
SK-MEL-2 melanoma = test system: SK-MEL-2 melanoma
SK-MEL-28 melanoma = test system: SK-MEL-28 melanoma
SK-MEL-5 melanoma = test system: SK-MEL-5 melanoma
SK-OV-3 ovarian = test system: SK-OV-3 ovarian
SN12C renal = test system: SN12C renal
SNB-19 CNS = test system: SNB-19 CNS
SNB-75 CNS = test system: SNB-75 CNS
SR leukemia = test system: SR leukemia
SW-620 colon = test system: SW-620 colon
T-47D breast = test system: T-47D breast
TK-10 renal = test system: TK-10 renal
U251 CNS = test system: U251 CNS
UACC-257 melanoma = test system: UACC-257 melanoma
UACC-62 melanoma = test system: UACC-62 melanoma
UO-31 renal = test system: UO-31 renal

Measured: TGI

O=c1[nH][nH]c(=O)n1Cc1cccc(Cn2c(=O)[nH][nH]c2=O)c1
> 100 µM: all assays above
